The values below come from patent publication US8865672B2, “Prevention of tissue ischemia and related methods” (The United States of America, as represented by the …, priority 2006, dated 2014).

Assay [1] concerns murine ASMC (WT, CD36 null, CD47 null). Put plainly: Intracellular cGMP in murine ASMC. The class given is cell-based, mouse. The procedure: Murine ASMC were obtained from aortic segments harvested sterilely from C57B1/6 CD47 null or CD36 null mice as described (Ray et al., Methods Cell Sci 23:185-188, 2001) and cultured in SM-GM (Cambrex)+20% FCS. In the case of CD36 null cells, culture flasks were pre-coated with 1% gelatin prior to cell plating. Wild type C57B1/6 ASMC cultures were prepared as previously described (Isenberg et al., Matrix Biol 24:110-123, 2005). Cell culture purity was determined by immunohistochemistry staining for α-smooth muscle actin. Cells were used within passage 1 to 4 to minimize overgrowth of other cell types.
HUVEC (10^4 cells/well) grown overnight in 96-well culture plates containing full growth medium with 2% FCS and weaned in growth medium without additives and 1% FCS over 24 hrs before treatment with NO donors and other agents in SM-GM without additives+0.1% BSA. Intracellular cGMP levels were determined according to the manufacturer's instructions using an enzyme immunoassay kit (Amersham Biosciences). In other experiments ASMC from wild type and CD36 or CD47 null mice were plated onto 96-well culture plates and incubated overnight in full growth medium. They were then weaned off serum as described to SM-GM+0.1% BSA and treated with NO donor and other agents as indicated. Intracellular cyclic nucleotides were determined via immunoassay.

The test system of assay [2] is human platelets. Put plainly: cGMP in human platelets. The class given is cell-based. Conditions: washed human platelets in Tyrode's buffer. The procedure: Fresh human platelets at 2×10^5 platelets/μl in Tyrode's buffer or PRP were pre-incubated with the indicated agents for 15 minutes and then challenged with DEA/NO for the indicated time interval at room temperature and total cGMP determined via immunoassay (Amersham, GE Healthcare, Buckinghamshire, UK). Murine WT and TSP1-null platelets were treated with DEA/NO and cGMP flux measured.

The next assay has as its system HUVEC. Put plainly: NO-stimulated HUVEC adhesion on type I collagen. The class given is cell-based, human. Conditions: DEA/NO 10 μM, 1 h. The protocol: Cell adhesion was carried out in 96-well culture plates. After pre-coating wells with type I collagen (3 μg/ml in DPBS) harvested cells were plated at a density of 1×10^4 cells/well in medium plus 0.1% BSA and treatment agents and incubated in 5% CO2 for 1 h. Wells were washed with PBS and cells fixed with 1% glutaraldehyde for 10 min., washed and stained with 1% crystal violet for 20 min. Excess stain was rinsed away, adherent cells treated with 10% acetic acid, and plates read at 570 nm.

Assay [3] concerns human platelets. Put plainly: Thrombin-induced human platelet aggregation. The class given is cell-based. Particulars: high shear, thrombin 0.2 U/ml, DEA/NO 10 μM. The procedure: Platelets were pelleted from platelet-rich plasma (PRP) by centrifugation for 10 minutes at 200 g. They were then washed with acid citrate dextrose (ACD) (85 mM citric acid, 65 mM sodium citrate, 100 mM glucose, pH 5.1) at a ratio of 1:7 at room temperature. After pelleting the platelets again and removing the supernatant, the platelets were resuspended in 5 mL of Tyrode's buffer (137 mM NaCl, 3 mM KCl, 12 mM NaHCO3, 0.3 mM NaHPO4, 2 mM CaCl2, 1 mM MgCl2, 5.5 mM glucose, 5 mM HEPES, 3.5 mg/mL BSA, pH 7.4). The final platelet number was adjusted to […] in 500 μl/cuvette of Tyrode's buffer.
Aggregation of human platelets under high shear conditions was assessed using a standard optical aggregometer (Lumi-Dual Aggregometer, Chrono-Log Corp., Havertown, Pa.) at 37° C. and 1200 rpm in a volume of 500 μl buffer with a final platelet concentration of 2×10^5 platelets/μl over a 5 minute interval. Pre-incubation with TSP1 and TSP1-based agents was for 15 minutes prior to addition of thrombin and/or the rapidly releasing nitric oxide donor DEA/NO. In some experiments platelets were pre-incubated with the Rap1 inhibitor GGTI-298 (10 μM) (Calbiochem, La Jolla, Calif.) for 30 minutes prior to initiating aggregation. In other high shear aggregation experiments murine platelets were prepared as above with the following modifications. Mouse blood was collected by retro-orbital bleeding of anesthetized mice using heparinized tubes. PRP was prepared and then diluted with 4 vol. of Tyrodes containing 5 mM EDTA to prevent activation. After collection by centrifugation, platelets were resuspended in 2× initial PRP volume and held at room temperature for less than 1 hour before use. Aggregation conditions consisted of 250 μL of washed platelets stirred at 1200 rpm in a Chronolog Optical aggregometer at 37° C. DEA/NO (10 μM) was added 30 seconds prior to activation and 8-BrcGMP added 15 min prior to activation with 0.2 U/ml human thrombin. Data was collected using Chronolog “Aggrolink” software. Platelet aggregation under static conditions was assessed using a spectrophotometer (Beckman DU 640, Beckman Coulter, Fullerton, Calif.) and determined as a change in absorbance at 400 nm with continuous observation over a five minute interval. The cuvette was inverted once every 60 seconds. Pre-incubation with TSP1 and TSP1-based agents was for 15 minutes prior to addition of thrombin and/or DEA/NO to minimize the formation of thrombin-serpinthrombospondin complexes (Chang & Detwiler, Arch Biochem Biophys. 299:100-104, 1992), which interfere with thrombin-platelet interactions.
Fresh human platelets were suspended in Tyrode's buffer and under low shear conditions thrombin-stimulated aggregation measured as described. Platelets were then treated with peptide C6d (1 μM)±NO (10 μM DEA/NO) and thrombin and aggregation measure.

The test system of assay [4] is HAVSMC. Briefly: 3D collagen matrix contraction assay, human aortic VSMC. The class given is cell-based. Conditions: HAVSMC, 10% FCS or 100 nM S1P. The procedure: Type I collagen gel (3 mg/ml) with 10×M199 (Gibco, Grand Island, N.Y.) at a 10:1 ratio of collagen to medium was prepared, pH balanced with NaOH and seeded with either HAVSMC or VSMC harvested from aortic segments from C57B16 WT or TSP1 null mice (50,000 cells in 75 μl of gel/well) and aliquoted to 96-well plates (Nunc, Denmark). Plates were incubated for 12 h 37° C. and 5% CO2 allowing for gelation and cell spreading, gently released from the well walls and incubated in serum and additive deficient growth medium with 0.1% BSA in the presence of the indicated treatment agents for 10 h. Contraction was determined by measuring the diameter in perpendicular planes (x, y) of each disk, an average obtained and surface area calculated as (d/2)^2π. Experiments were performed in triplicate. Results represent the mean±SD of at least three separate experiments.
Human aortic VSMC were plated onto 12-well culture plates (Nunc) at a density of 5×10^4 cells/well in SM-GM+2% FCS and cultured until approximately 90% confluent. A translation-blocking antisense morpholino oligonucleotide complementary to human and murine CD47 ([…]; SEQ ID NO: 21) and a five-base mismatch control (CGTgACAGcCAcGACCgACTGCgCA; SEQ ID NO: 22) were obtained from GeneTools (Philomath, Oreg.). Cultured cells were treated as per the manufacturer's recommendation with morpholinos (10 μM) and utilized within 48 hours of treatment.

Assay [5] concerns HAVSMC. Briefly: Actin cytoskeleton staining (F-actin) in HAVSMC. The class given is cell-based, human. The procedure:
VSMC were grown on glass well slides (Lab-Tek, Nunc) under standard growth conditions. Cells were incubated at 37° C. for 1 hour in serum and additive deficient growth medium and the indicated treatment agents, after which the media was removed and the cells were fixed in 4% paraformaldehyde in PBS (pH 7.4, Fisher Scientific) for 15 minutes at room temperature. After washing with DPBS, cells were permeabilized for 5 minutes in 0.1% Triton X-100 in PBS and then blocked in M199E/2% BSA for 30 min at room temperature. Cells were stained for F-actin with 1 unit/200 μl medium/1% BSA of Oregon Green 488 phalloidin (Molecular Probes). Slides were imaged using an Olympus IX70 microscope and photographed at constant exposure and gain. In other experiments VSMC were plated on 24-well culture plates (Nunc, Denmark) in smooth muscle growth medium (50,000 cells/well) and weaned from serum and additives over 24 hours. Cell treatment was performed with the indicated agents in plain medium with 0.1% BSA for 5 minutes. Wells were processed as described above. Following staining with phalloidin cells were incubated in methanol for 30 minutes, samples aliquoted to 96-well black plates and fluorescence read at 520 nm (excitation 495 nm). Data was normalized to total protein. Results represent the mean±SD of at least three separate experiments.

The subject of assay [6] is human platelets. Put plainly: Human platelet adhesion assay. Conditions: fibrinogen or collagen, DEA/NO 10 μM. The class given is cell-based. The protocol:
Bacteriological Petri dishes (35×10 mm, Becton Dickinson Labware) were pre-coated with collagen (3 μg/ml) or fibrinogen (15 μg/mL) overnight. Following aspiration of non-adherent matrix, dishes were blocked with 1% BSA. Fresh platelets were washed and suspended in Tyrode's buffer and allowed to adhere for 30 minutes. Plates were washed with PBS, fixed with 0.5% glutaraldehyde and stained with 0.02% toluidine blue. Adherent platelets were counted microscopically. In some experiments platelets were pre-incubated with the Rap1 geranylgeranyltransferase inhibitor GGTI-298 (10 μM) for 30 minutes prior to initiating adhesion.

Square brackets hold non-standard residues; d marks the D form. Ends that are not written are not given here.

Turning to “GDGV(D-I)TRIR (GDGV[dI]TRIR) [p907, reference compound]”, the “NO-stimulated cGMP” value was “partially inhibited” in assay [1] (CD36 null MASMC); “did not significantly inhibit” in assay [1] (CD47 null MASMC); “slightly inhibited” in assay [1] (WT MASMC); “inhibited NO-stimulated cGMP responses in WT” in assay [1] (WT MASMC, listed as 907). In addition, in the assay with human platelets [2], the “NO stimulated cGMP in platelets” value is given as “partially inhibited”. Also, the “NO-stimulated endothelial cell adhesion on type I collagen” value with HUVEC is “inhibited NO-stimulated endothelial cell adhesion”. The “NO delay of thrombin-induced platelet aggregation” value with human platelets [3] was “accelerated platelet aggregation in the presence of NO”.
On to `CCCCCCCCCCCCC/C=C/[C@@H](O)[C@@H](N)COP(=O)(O)O` [S1P, sphingosine-1-phosphate, reference compound], for which the collagen gel contraction result in the assay with HAVSMC [4] is on record as “significant contraction”. Further, the F-actin levels result in the assay with HAVSMC [5] (agent alone (TSP1 2.2 nM, S1P 100 nM)) is listed as “increased F-actin”.
As to `O=c1onc2cnc3ccccc3n12` [ODQ, Oxadiazole-[4,3-a]quinoxalin-1-one, reference compound], the “decrease in platelet adhesion in response to exogenous NO” value in the assay on human platelets [6] was “prevented the decrease in platelet adhesion”. For the same compound, the NO-induced actin disassembly result in the assay with HAVSMC [5] (DEA/NO 10 μM) was “inhibition of actin disassembly by NO”.
On to `NCCN(CCN)/[N+]([O-])=N/O` [DETA/NO, diethyltriamine NONOate], for which the collagen gel contraction entry in the assay with HAVSMC [4] is listed as “inhibited gel contraction by both agonists”.
